From US20260092061A1, “COMPOUNDS FOR TARGETED PROTEIN DEGRADATION” (Amphista Therapeutics Limited, priority 2022, published 2026)
Read-outs that look alike come from different tables or passages of the source.

Target: T1, BRD9 (Homo sapiens, UniProt Q9H8M2)
T1 sequence (Q9H8M2 1-597): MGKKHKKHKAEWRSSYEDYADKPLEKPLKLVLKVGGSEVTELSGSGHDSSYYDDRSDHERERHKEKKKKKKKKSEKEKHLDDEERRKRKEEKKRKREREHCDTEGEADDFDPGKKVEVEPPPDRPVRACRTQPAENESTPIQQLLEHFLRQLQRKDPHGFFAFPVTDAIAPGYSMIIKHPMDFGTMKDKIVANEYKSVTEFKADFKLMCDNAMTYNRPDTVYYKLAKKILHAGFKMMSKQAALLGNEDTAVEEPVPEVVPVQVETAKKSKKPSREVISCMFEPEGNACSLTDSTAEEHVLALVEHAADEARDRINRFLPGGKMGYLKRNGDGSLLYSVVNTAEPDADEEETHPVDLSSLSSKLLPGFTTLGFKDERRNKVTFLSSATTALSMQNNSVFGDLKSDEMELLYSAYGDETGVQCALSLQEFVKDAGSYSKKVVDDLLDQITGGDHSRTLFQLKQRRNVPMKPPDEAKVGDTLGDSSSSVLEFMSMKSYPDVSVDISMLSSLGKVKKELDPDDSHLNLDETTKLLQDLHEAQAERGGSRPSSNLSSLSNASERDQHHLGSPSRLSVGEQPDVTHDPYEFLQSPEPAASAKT
Experiment: Degradation of BRD9 (IF), immunofluorescence in MV4-11 cells, 24 hours (Assay Protocol 2)
Format: cell-based
Parameters: A suspension of MV4-11 cells (ATCC CRL-9591) was prepared; host or cells: MV4-11
Settings: BRD9 degradation; for DC50: read-out: DC50
Procedure, shortened: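 MV4-11 cells treated with compound 24 h at 37° C., then fixed, permeabilised and immunostained for BRD9 (anti-BRD9 E4Q3F, Alexa 647 secondary, Hoechst counterstain). High-content imaging quantified nuclear BRD9 signal; % BRD9 remaining normalised to DMSO and 100 nM CFT-8634 controls.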

[1] = MV4-11, Assay protocol 2, read-out: Dmax

SMILES | DC50 (Assay protocol 2) [nM] | Dmax [1] [%] | Dmax (Assay protocol 2)
COc1cc(-c2cn(C)c(=O)c(C)c2C)cc(OC)c1CN1CCN(Cc2ccc3c(c2)[C@@H](C)N(C(=O)/C(C#N)=C/C(C)(C)O)CC3)C2(CC2)C1 (single isomer, unassigned) [Compound C39, (E/Z)-2-(7-((7-(2,6-dimethoxy-4-(1,4,5-trimethyl-6-oxo-1,6-dihydropyridin-3-yl)benzyl)-4,7-diazaspiro[2.5]octan-4-yl)methyl)-1-methyl-1,2,3,4-tetrahydroisoquinoline-2-carbonyl)-4-hydroxy-4-methylpent-2-enenitrile] | < 1.25 | > 75 | 
COc1cc(-c2cn(C)c(=O)c(C)c2C)cc(OC)c1CN1CCN(Cc2ccc3c(c2)[C@@H](C)N(C(=O)/C(C#N)=C/C(C)(C)CN2CCOCC2)CC3)C2(CC2)C1 (single isomer, unassigned) [Compound C40, (E/Z)-2-(7-((7-(2,6-dimethoxy-4-(1,4,5-trimethyl-6-oxo-1,6-dihydropyridin-3-yl)benzyl)-4,7-diazaspiro[2.5]octan-4-yl)methyl)-1-methyl-1,2,3,4-tetrahydroisoquinoline-2-carbonyl)-4,4-dimethyl-5-morpholinopent-2-enenitrile] | 1.25 to 10 | 70 to 75 | 
COc1cc(-c2cn(C)c(=O)c(C)c2C)cc(OC)c1CN1CCN(Cc2ccc3c(c2)[C@@H](C)N(C(=O)/C(C#N)=C/C(C)(C)CO)CC3)C2(CC2)C1 (single isomer, unassigned) [Compound C41, (E/Z)-2-(7-((7-(2,6-dimethoxy-4-(1,4,5-trimethyl-6-oxo-1,6-dihydropyridin-3-yl)benzyl)-4,7-diazaspiro[2.5]octan-4-yl)methyl)-1-methyl-1,2,3,4-tetrahydroisoquinoline-2-carbonyl)-5-hydroxy-4,4-dimethylpent-2-enenitrile] | 1.25 to 10 | > 75 | 
COc1cc(-c2cn(C)c(=O)c(C)c2C)cc(OC)c1CN1CC(N(C)c2ccc3c(c2)[C@H](C)N(C(=O)/C(C#N)=C/C(C)(C)C)CC3)C1 (single isomer, unassigned) [Compound C44] | 1.25 to 10 | 70 to 75 | 
COc1cc(-c2cn(C)c(=O)c(C)c2C)cc(OC)c1CN1CCC2(CCN(c3ccc4c(c3)[C@H](C)N(C(=O)/C(C#N)=C/C(C)(C)C)CC4)C2)C1 (single isomer, unassigned) [Compound C52] | 10 to 25 | 40 to 70 | 
COc1cc(-c2cn(C)c(=O)c(C)c2C)cc(OC)c1CN1CCC(Cc2cccc3c2CCN(C(=O)/C(C#N)=C/C(C)(C)C)[C@H]3C)CC1 (single isomer, unassigned) [Compound C59, (E/Z)-2-(5-((1-(2,6-dimethoxy-4-(1,4,5-trimethyl-6-oxo-1,6-dihydropyridin-3-yl)benzyl)piperidin-4-yl)methyl)-1-methyl-1,2,3,4-tetrahydroisoquinoline-2-carbonyl)-4,4-dimethylpent-2-enenitrile] | 1.25 to 10 | 40 to 70 | 
COc1cc(-c2cn(C)c(=O)c(C)c2C)cc(OC)c1CN1CCC(Cc2cccc3c2CCN(C(=O)/C(C#N)=C/C(C)(C)CF)[C@H]3C)CC1 (single isomer, unassigned) [Compound C60, (E/Z)-2-(5-((1-(2,6dimethoxy-4-(1,4,5-trimethyl-6-oxo-1,6-dihydropyridin-3-yl)benzyl)piperidin-yl)methyl)-1-methyl-1,2,3,4-tetrahydroisoquinoline-2-carbonyl)-5-fluoro-4,4-dimethylpent-2-enenitrile] | 1.25 to 10 | 70 to 75 | 
COc1cc(-c2cn(C)c(=O)c(C)c2C)cc(OC)c1CN1CC2CC(C1)N2Cc1ccc2c(c1)[C@H](C)N(C(=O)/C(C#N)=C/C(C)(C)C)CC2 (single isomer, unassigned) [Compound C63, (E/Z)-2-(7-((3-(2,6-dimethoxy-4-(1,4,5-trimethyl-6-oxo-1,6-dihydropyridin-3-yl)benzyl)-3,6-diazabicyclo[3.1.1]heptan-6-yl)methyl)-1-methyl-1,2,3,4-tetrahydroisoquinoline-2-carbonyl)-4,4-dimethylpent-2-enenitrile] | 1.25 to 10 | > 75 | 
COc1cc(-c2cn(C)c(=O)c(C)c2C)cc(OC)c1CN1CC2CC(C1)N2Cc1ccc2c(c1)[C@@H](C)N(C(=O)/C(C#N)=C/C(C)(C)C)CC2 (single isomer, unassigned) [Compound C64, (E/Z)-2-(7-((3-(2,6-dimethoxy-4-(1,4,5-trimethyl-6-oxo-1,6-dihydropyridin-3-yl)benzyl)-3,6-diazabicyclo[3.1.1]heptan-6-yl)methyl)-1-methyl-1,2,3,4-tetrahydroisoquinoline-2-carbonyl)-4,4-dimethylpent-2-enenitrile] | 25 to 1000 | 40 to 70 | 
COc1cc(-c2cn(C)c(=O)c(C)c2C)cc(OC)c1CN1CCC(N(C)c2ccc3c(c2)[C@@H](C)N(C(=O)/C(C#N)=C/C(C)(C)C)CC3)CC1 (single isomer, unassigned) [Compound C65] | 1.25 to 10 | 40 to 70 | 
COc1cc(-c2cn(C)c(=O)c(C)c2C)cc(OC)c1CN1CCC2(CC1)CCN(c1ccc3c(c1)[C@H](C)N(C(=O)/C(C#N)=C/C(C)(C)C)CC3)C2 (single isomer, unassigned) [Compound C66] | 1.25 to 10 | 40 to 70 | 
COc1cc(-c2cn(C)c(=O)c(C)c2C)cc(OC)c1CN1CC(N(C)Cc2ccc3c(c2)[C@H](C)N(C(=O)/C(C#N)=C/C(C)(C)C)CC3)C1 (single isomer, unassigned) [Compound C70, (E/Z)-2-(7-(((1-(2,6-dimethoxy-4-(1,4,5-trimethyl-6-oxo-1,6-dihydropyridin-3-yl)benzyl)460zetidine-4-yl)(methyl)amino)methyl)-1-methyl-1,2,3,4-tetrahydroisoquinoline-2-carbonyl)-4,4-dimethylpent-2-enenitrile] | 25 to 1000 | 40 to 70 | 
COc1cc(-c2cn(C)c(=O)c(C)c2C)cc(OC)c1CN1CC(N(C)Cc2ccc3c(c2)[C@@H](C)N(C(=O)/C(C#N)=C/C(C)(C)C)CC3)C1 (single isomer, unassigned) [Compound C71, (E/Z)-2-(7-(((1-(2,6-dimethoxy-4-(1,4,5-trimethyl-6-oxo-1,6-dihydropyridin-3-yl)benzyl)460zetidine-4-yl)(methyl)amino)methyl)-1-methyl-1,2,3,4-tetrahydroisoquinoline-2-carbonyl)-4,4-dimethylpent-2-enenitrile] | 25 to 1000 | 40 to 70 | 
COc1cc(-c2cn(C)c(=O)c(C)c2C)cc(OC)c1CN1CCC(Oc2ccc3c(c2)[C@H](C)N(C(=O)/C(C#N)=C/C(C)(C)C)CC3)CC1 (single isomer, unassigned) [Compound C73, (E/Z)-2-(7-((1-(2,6-dimethoxy-4-(1,4,5-trimethyl-6-oxo-1,6-dihydropyridin-3-yl)benzyl)piperidin-4-yl)oxy)-1-methyl-1,2,3,4-tetrahydroisoquinoline-2-carbonyl)-4,4-dimethylpent-2-enenitrile] | 1.25 to 10 | > 75 | 
COc1cc(-c2cn(C)c(=O)c(C)c2C)cc(OC)c1CN1CCN(Cc2cccc3c2CCN(C(=O)/C(C#N)=C/C(C)(C)CF)C3C(C)C)C2(CC2)C1 (single isomer, unassigned) [Compound C76, (E/Z)-2-(5-((7-(2,6-dimethoxy-4-(1,4,5-trimethyl-6-oxo-1,6-dihydropyridin-3-yl)benzyl)-4,7-diazaspiro[2.5]octan-4-yl)methyl)-1-isopropyl-1,2,3,4-tetrahydroisoquinoline-2-carbonyl)-5-fluoro-4,4-dimethylpent-2-enenitrile] | 1.25 to 10 | 70 to 75 | 
COc1cc(-c2cn(C)c(=O)c(C)c2C)cc(OC)c1CN1CCN(Cc2cccc3c2CCN(C(=O)/C(C#N)=C/C(C)(C)CF)C3C(C)C)C2(CC2)C1 (single isomer, unassigned) [Compound C77, (E/Z)-2-(5-((7-(2,6-dimethoxy-4-(1,4,5-trimethyl-6-oxo-1,6-dihydropyridin-3-yl)benzyl)-4,7-diazaspiro[2.5]octan-4-yl)methyl)-1-isopropyl-1,2,3,4-tetrahydroisoquinoline-2-carbonyl)-5-fluoro-4,4-dimethylpent-2-enenitrile] | < 1.25 |  | +++ (+++ = ≥75%)
COc1cc(-c2cn(C)c(=O)c(C)c2C)cc(OC)c1CN1CCN(Cc2cccc3c2CCN(C(=O)/C(C#N)=C/C(C)(C)C)[C@H]3C(C)C)C2(CC2)C1 (single isomer, unassigned) [Compound C78, (E/Z)-2-(5-((7-(2,6-dimethoxy-4-(1,4,5-trimethyl-6-oxo-1,6-dihydropyridin-3-yl)benzyl)-4,7-diazaspiro[2.5]octan-4-yl)methyl)-1-isopropyl-1,2,3,4-tetrahydroisoquinoline-2-carbonyl)-4,4-dimethylpent-2-enenitrile] | < 1.25 | > 75 | 
